One data set has as its system MDA-MB-231. The data set can be described thus: Cytotoxicity against human MDA-MB-231 cells after 2 hrs by MTS assay. It is filed as functional, cell-based. Particulars: MDA-MB-231, 2 h. (Formazan colour is commonly taken as a measure of viable cells.)
A short description of data set [1]: Cytotoxicity against mouse JB6 Cl41 cells after 2 hrs by MTS assay. It is filed as cell-based. Particulars: JB6 Cl41, 2 h.
A further data set has as its system JB6 Cl41. The data set can be described thus: Inhibition of AP-1 basal transcriptional activity in mouse JB6 Cl41 cells at non cytotoxic concentration after 12 hrs by luciferase reporter gene assay. It is filed as functional, cell-based. On the technique in general: In a reporter assay the amount or activity of a reporter protein is the signal.
Data set [2] can be described thus: Inhibition of AP-1 basal transcriptional activity in mouse JB6 Cl41 cells at 6.25 uM after 12 hrs by luciferase reporter gene assay. To be noted: JB6 Cl41, 12 h. It counts as functional.
The nature of data set [3]: Cytotoxicity against mouse JB6 Cl41 cells assessed as reduction in cell viability up to 100 uM after 2 hrs by MTS assay. To be noted: jb6 cl41, 2 h. It counts as cell-based.
Data set [4] can be described thus: Inhibition of endo-1,3-beta-D-glucanase in Pseudocardium sachalinensis preincubated for 15 mins by Nelson method.

Counter-ions that a name gives are not always drawn. Activity calls are given as the source filed them. No cut-off for these calls is given here.

On to `CCCCOC(=O)CC[C@@]1(C)[C@H]2Cc3c(c(C)c4c(c3OC)C(=O)OC4)O[C@@]2(C)C[C@@H](O)[C@H]1C(C)(C)O`, for which the figures for the IC50 (in the data set with MDA-MB-231; in data set [1]; in data set [4]) were less than 10 µM, less than 10 µM and 0.2 µM, respectively. For the same molecule, in the data set with JB6 Cl41, the inhibition (as a rule, how much of the control response was suppressed) is “Active”. The same molecule yielded an inhibition at 6.25 µM in data set [2] of 36.1%. Moreover, the Activity result in data set [3] is listed as “Non-toxic”.

For the molecule `COc1c2c(c(C)c3c1C(=O)OC3)O[C@@]1(C)C[C@@H](O)[C@]34O[C@](O)(CC[C@]3(C)[C@H]1C2)OC4(C)C`, it took 250 µM to reach half-maximal inhibition in data set [4] (IC50).

Take `CC(CC[C@@H](C)[C@H]1CC[C@H]2[C@@H]3C[C@H](OS(=O)(=O)O)[C@H]4C[C@H](OS(=O)(=O)O)[C@@H](OS(=O)(=O)O)C[C@]4(C)[C@H]3CC[C@]12C)C(C)(C)C` (some centres not stated) [HALISTANOL SULFATE]: inhibition in data set [4] was half-maximal at 130 µM (IC50).

For the molecule `C=C(C)[C@@H]1[C@H](O)C[C@]2(C)Oc3c(C)c4c(c(OC)c3C[C@@H]2[C@]1(C)CCC(=O)O)C(=O)OC4`, half-maximal inhibition in data set [4] (IC50) was put at 0.12 µM.

With `COc1c2c(c(C)c3c1C(=O)OC3)O[C@@]1(C)CC[C@@H](C(C)(C)O)[C@@](C)(CCC(=O)O)[C@H]1C2`, 0.01 µM corresponded to half-maximal inhibition in data set [4] (IC50).

As for `COc1c2c(c(C)c3c1C(=O)OC3)O[C@@]1(C)CC[C@H]3C(C)(C)OC(=O)CC[C@]3(C)[C@H]1C2`, the IC50 (commonly the concentration that gives 50% inhibition) is less than 10 µM in the data set with MDA-MB-231, less than 10 µM in data set [1] and 0.01 µM in data set [4]. Moreover, in the data set with JB6 Cl41, the inhibition entry is “Active”. This molecule also came in with an inhibition at 6.25 µM in data set [2] of 36.3%. In addition, the Activity entry in data set [3] is recorded as “Non-toxic”.

Turning to `COc1c2c(c(C)c3c1C(=O)OC3)O[C@@]1(C)C[C@@H](O)[C@@H](C(C)(C)O)[C@@](C)(CCC(=O)O)[C@H]1C2`, the results for the IC50 (in the data set with MDA-MB-231; in data set [1]; in data set [4]) were less than 10 µM, less than 10 µM and 1 µM, respectively. In addition, the inhibition result with JB6 Cl41 is “Active”.

Consider `CCCCOC(=O)CC[C@@]1(C)[C@H]2Cc3c(c(C)c4c(c3OC)C(=O)OC4)O[C@@]2(C)CC[C@H]1C(C)(C)O`, for which, in data set [2], 6.25 µM produced 34% inhibition. For the same molecule, the Activity result in data set [3] was “Non-toxic”. In addition, in data set [4], the IC50 was 0.1 µM.

Turning to `COc1c2c(c(C)c3c1C(=O)OC3)O[C@@]1(C)C[C@@H](O)[C@H]3C(C)(C)OC(=O)CC[C@]3(C)[C@H]1C2`, the IC50 with MDA-MB-231 is less than 10 µM; in data set [1], less than 10 µM; in data set [4] it was 2 µM. In the data set with JB6 Cl41, the inhibition result was “Active”. The same molecule gave an inhibition at 6.25 µM in data set [2] of 27.6%. The Activity entry in data set [3] is given as “Non-toxic”.

As for `C=C(C)[C@@H]1CC[C@]2(C)Oc3c(C)c4c(c(OC)c3C[C@@H]2[C@]1(C)CCC(=O)O)C(=O)OC4`, the concentration for half-maximal inhibition (IC50) was less than 10 µM in the data set on MDA-MB-231, less than 10 µM in data set [1] and 1000 µM in data set [4].
